From patent US20250129082A1, “N-1 Triazole Substituted Imidazoquinolines, Conjugates Thereof, and Methods” (Solventumn Intellectual Properties Company, priority 2021, published 2025)

Assays:
Assay type in all cases: cell-based
human TLR7 = molecular target: T1, human TLR7 (Homo sapiens, UniProt Q9NYK1); assay: TLR activation and specificity, HEK-BLUE-hTLR7 SEAP reporter cells; details: 16-20 hours, lowest concentration giving SEAP response at least 2× vehicle control, tested 0.01-30 micromolar
T1 construct: host or cells: HEK293 (HEK-BLUE-hTLR7)
T1 sequence (Q9NYK1 27-1049): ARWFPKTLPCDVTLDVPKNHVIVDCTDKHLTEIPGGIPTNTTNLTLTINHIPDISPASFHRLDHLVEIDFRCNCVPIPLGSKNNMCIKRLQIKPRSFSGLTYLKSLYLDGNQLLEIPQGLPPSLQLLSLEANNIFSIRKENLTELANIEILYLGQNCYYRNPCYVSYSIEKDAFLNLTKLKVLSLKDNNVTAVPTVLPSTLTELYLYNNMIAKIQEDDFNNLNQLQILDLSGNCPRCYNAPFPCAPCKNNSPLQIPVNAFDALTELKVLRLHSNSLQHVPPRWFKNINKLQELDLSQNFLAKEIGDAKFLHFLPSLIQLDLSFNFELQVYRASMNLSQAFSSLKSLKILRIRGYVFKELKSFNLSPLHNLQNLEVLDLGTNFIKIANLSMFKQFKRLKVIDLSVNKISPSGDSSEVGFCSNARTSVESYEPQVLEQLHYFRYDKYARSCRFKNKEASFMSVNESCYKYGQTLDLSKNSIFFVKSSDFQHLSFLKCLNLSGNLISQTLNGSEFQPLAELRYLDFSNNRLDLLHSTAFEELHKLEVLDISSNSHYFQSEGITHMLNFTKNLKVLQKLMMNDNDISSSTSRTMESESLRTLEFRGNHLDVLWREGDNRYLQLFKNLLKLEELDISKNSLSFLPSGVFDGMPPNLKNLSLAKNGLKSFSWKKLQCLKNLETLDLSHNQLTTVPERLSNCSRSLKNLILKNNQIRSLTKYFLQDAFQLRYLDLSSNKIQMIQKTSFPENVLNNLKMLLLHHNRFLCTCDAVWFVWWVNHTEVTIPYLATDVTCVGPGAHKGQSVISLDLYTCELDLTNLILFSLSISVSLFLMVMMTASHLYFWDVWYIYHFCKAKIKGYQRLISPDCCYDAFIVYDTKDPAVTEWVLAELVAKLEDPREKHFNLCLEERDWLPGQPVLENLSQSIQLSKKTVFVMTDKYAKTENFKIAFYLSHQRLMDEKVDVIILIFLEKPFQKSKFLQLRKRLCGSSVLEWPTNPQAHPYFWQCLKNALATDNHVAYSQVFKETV
Description: (§1) HEK-BLUE-hTLR7 or hTLR8 reporter cells were obtained from InvivoGen, San Diego, CA. According to the manufacturer's description, these reporter cells were prepared by co-transfection of HEK293 cells with an inducible secreted embryonic alkaline phosphatase (SEAP) reporter gene and either the human TLR7 or TLR8 gene. The SEAP reporter gene was placed under the control of an IFN-β minimal promoter fused to five NF-κB and AP-1-binding sites. In the presence of a TLR ligand, activation of NF-κB and AP-1 occurs, resulting in a corresponding increase in SEAP levels.
(§2) In the assay, the HEK cells were grown and maintained using standard cell culture techniques in a growth medium that contained Dulbecco's Modified Eagle Medium (ThermoFisher Scientific Incorporated, Waltham, MA) supplemented with 1% penicillin/streptomycin and 10% heat-inactivated Gibco fetal bovine serum (ThermoFisher Scientific). Each compound was solubilized in DMSO to create a 3 mM stock solution. The stock solution was then further diluted with the growth medium to prepare serial dilutions. Each test compound was tested at a concentration of 30, 10, 3.3, 1.1, 0.37, 0.12, 0.04, and 0.01 micromolar using a 96-well format with 5×10^4 cells and 200 microliters of growth medium per well.
(§3) For each compound, hTLR7, hTLR8, and their respective null control HEK cells were screened. DMSO serially diluted into the growth medium served as the vehicle control. Cell culture supernatants containing the SEAP reporter were collected after an incubation period of 16-20 hours in a cell culture incubator (37° C. and 5% CO2), and either analyzed immediately or stored at −80° C. SEAP levels were measured using the colorimetric enzyme assay (QUANTI-BLUE (InvivoGen) according to manufacturer's instructions.
(§4) Specifically, the minimum effective concentration of each compound (micromolar) was determined as the lowest concentration of the compound that produced a SEAP expression response at least 2× greater than that observed with the vehicle control wells.

human TLR8 = molecular target: T2, human TLR8 (Homo sapiens, UniProt Q9NR97); assay: TLR activation and specificity, HEK-BLUE-hTLR8 SEAP reporter cells; details: 16-20 hours, lowest concentration giving SEAP response at least 2× vehicle control, tested 0.01-30 micromolar
T2 construct: host or cells: HEK293 (HEK-BLUE-hTLR8)
T2 sequence (Q9NR97 27-1041): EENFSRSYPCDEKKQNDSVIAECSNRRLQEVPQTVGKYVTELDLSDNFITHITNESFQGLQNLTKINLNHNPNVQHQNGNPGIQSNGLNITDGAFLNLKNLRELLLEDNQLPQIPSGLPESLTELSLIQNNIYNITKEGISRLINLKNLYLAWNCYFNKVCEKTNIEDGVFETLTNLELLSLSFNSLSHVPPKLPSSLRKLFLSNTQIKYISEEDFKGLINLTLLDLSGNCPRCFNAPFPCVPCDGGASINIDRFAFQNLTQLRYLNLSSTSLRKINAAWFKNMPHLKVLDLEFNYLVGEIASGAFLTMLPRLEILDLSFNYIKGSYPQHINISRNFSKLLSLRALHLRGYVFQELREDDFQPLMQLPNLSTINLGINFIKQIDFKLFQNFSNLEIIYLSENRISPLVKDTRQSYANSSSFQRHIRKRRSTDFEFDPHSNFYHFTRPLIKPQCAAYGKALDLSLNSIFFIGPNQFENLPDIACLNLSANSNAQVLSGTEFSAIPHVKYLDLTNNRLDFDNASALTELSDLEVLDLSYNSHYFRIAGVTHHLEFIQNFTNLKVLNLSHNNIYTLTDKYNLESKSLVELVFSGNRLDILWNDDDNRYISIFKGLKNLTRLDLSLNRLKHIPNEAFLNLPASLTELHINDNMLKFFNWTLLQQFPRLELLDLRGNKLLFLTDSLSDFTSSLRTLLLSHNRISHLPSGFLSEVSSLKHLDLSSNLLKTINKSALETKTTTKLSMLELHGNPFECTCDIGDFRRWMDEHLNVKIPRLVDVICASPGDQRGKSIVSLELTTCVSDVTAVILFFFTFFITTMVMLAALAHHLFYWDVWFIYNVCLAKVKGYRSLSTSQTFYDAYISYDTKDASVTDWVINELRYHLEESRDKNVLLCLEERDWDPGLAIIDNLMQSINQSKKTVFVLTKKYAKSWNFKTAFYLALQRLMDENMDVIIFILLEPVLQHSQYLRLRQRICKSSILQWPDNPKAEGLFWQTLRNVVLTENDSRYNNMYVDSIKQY
Description: as §1, §2, §3, §4

[1] = system: Human peripheral blood mononuclear cells (PBMC); assay: Cytokine induction in human cells (PBMC), Ella Simple Plex ELISA; details: 21-24 hours, tested 0.01-30 micromolar; for MEC to Induce Cytokine, IFN-alpha: lowest concentration inducing IFN-alpha at least 2× negative control; for MEC to Induce Cytokine, IFN-gamma: lowest concentration inducing IFN-gamma at least 2× negative control; for MEC to Induce Cytokine, TNF-alpha: lowest concentration inducing TNF-alpha at least 2× negative control
Description: Whole blood was obtained from healthy human donors and collected by venipuncture into vacutainer tubes or syringes containing EDTA. Human peripheral blood mononuclear cells (PBMC) were purified from the whole blood by density gradient centrifugation. Histopaque 1077 (15 mL, Sigma-Aldrich) was transferred to 6×50 mL sterile polypropylene conical tubes. The Histopaque was overlayed with 15-25 mL of blood diluted 1:2 in Hank's Balanced Salts Solution (HBSS) (Gibco, Life Technologies, Grand Island, NY). The tubes were then centrifuged at 1370 rpm for 30 minutes at 20° C., with no brake (400λg, GH 3.8A Rotor).
The interface (buffy coat) containing the PBMC was collected and placed in a new sterile 50 mL conical polypropylene centrifuge tube. The PBMC were mixed with an equal volume of HBSS (about 20 mL from the interface and about 20 mL of HBSS), and then centrifuged at 1090 rpm, 10 minutes, 20° C., with brake (270λg, GH 3.8A Rotor). After completing centrifugation, the cells were resuspended in 2-3 mL ACK Red blood cell lysis buffer (ammonium chloride potassium solution, Gibco, Life Technologies) and incubated for 2-5 minutes at 20° C. Next, HBSS (40 mL) was added to the cells, and the sample was centrifuged at 270×g for 10 minutes at 20° C. The supernatant was decanted, and the cell pellet was resuspended in 5 mL AIM V Medium (Gibco, Life Technologies). Cell aggregates and debris were removed by filtering the cell solution through a BD Falcon 70 micron nylon cell strainer (BD Biosciences, San Jose, CA).
The number of viable cells was determined by counting with a Moxi Z instrument (ORFLO Technologies, Ketchum, ID) or by using a hemacytometer. For determining cell viability with a hemacytometer, the cells were diluted 1/10 in 0.4% trypan blue and HBSS (specifically, 50 microliter of trypan blue+40 microliter of HBSS+10 microliter of cell solution were added to a microfuge tube and mixed). Ten microliters of the diluted cells were then applied to the hemacytometer, and the number of viable PBMC were determined by microscopy.
The PBMC sample was then resuspended in 96-well plates at a concentration of 8×10^5 cells/well in 0.1 mL of AIM-V medium. Each compound was solubilized in DMSO to create a 3 mM stock solution. The stock solution was then further diluted with AIM-V medium to prepare the serial dilutions. The diluted compound (100 microliters) was then transferred to the PBMCs to produce testing sets with final compound concentrations of 30, 10, 3.3, 1.1, 0.37, 0.12, 0.04, 0.01 micromolar. The plates also had both positive and negative controls. The negative control wells contained only AIM-V medium with no example compound. The positive control wells contained a control set of imiquimod serially diluted to concentrations of 30, 10, 3.3, 1.1, 0.37, 0.12, 0.04, 0.01 micromolar. The concentrations used in the control set were selected to match the concentrations used in the testing set. The plates were then cultured at 37° C./5% CO2 for 21-24 hours. Cell-free supernatants were harvested by centrifuging the 96-well plates at 2100 rpm, 23° C. for 10 minutes. Approximately 160 microliters of the supernatant was then stored in a NUNC 96-well plate, covered with the compression cap and stored at −80° C. until the cytokine analysis was done.
Cytokine levels (human IFN-alpha multisubtype, human IFN-gamma, and human TNF-alpha) were measured in picograms/mL by Ella Simple Plex ELISA (ProteinSimple, San Jose, CA) according to the manufacturer's instructions.
Specifically, the minimum effective concentration of each compound (micromolar) was determined as the lowest concentration of the compound that induced a measured cytokine response at a level ([…]) that was at least 2× greater than that observed with the negative control wells.

MEC to Produce TLR Activation, TLR 7 (human TLR7) | MEC to Produce TLR Activation, TLR 8 (human TLR8) | Compound | MEC to Induce Cytokine, IFN-alpha [1] | MEC to Induce Cytokine, IFN-gamma [1] | MEC to Induce Cytokine, TNF-alpha [1]
≤0.01 µM | 3.3 µM | CCOC[C@H](Cc1ccc(OCCn2cc(-c3ccccc3)nn2)cc1)n1cnc2c(N)nc3ccccc3c21 [Example 2, (S)-1-(1-ethoxy-3-(4-(2-(4-phenyl-1H-1,2,3-triazol-1-yl)ethoxy)phenyl)propan-2-yl)-1H-imidazo[4,5-c]quinolin-4-amine] | ≤0.01 µM | ≤0.01 µM | ≤0.01 µM
1.1 µM | >30 µM | CCOC[C@H](Cc1ccc(OCCCCCCCCCCCN=[N+]=[N-])cc1)n1cnc2c(N)nc3ccccc3c21 [Example 3, (S)-1-(1-(4-((11-azidoundecyl)oxy)phenyl)-3-ethoxypropan-2-yl)-1H-imidazo[4,5-c]quinolin-4-amine] | 3.3 µM | >30 µM | 1.1 µM
3.3 µM | 3.3 µM | CCOC[C@H](Cc1ccc(OCCCCCCCCCCCn2cc(-c3ccccc3)nn2)cc1)n1cnc2c(N)nc3ccccc3c21 [Example 4, (S)-1-(1-ethoxy-3-(4-((11-(4-phenyl-1H-1,2,3-triazol-1-yl)undecyl)oxy)phenyl)propan-2-yl)-1H-imidazo[4,5-c]quinolin-4-amine] | 3.3 µM | 10 µM | 3.3 µM
≤0.01 µM | 10 µM | CCOC[C@H](Cc1ccc(OCCN=[N+]=[N-])cc1)n1cnc2c(N)nc3ccccc3c21 [Example 1, (S)-1-(1-(4-(2-azidoethoxy)phenyl)-3-ethoxypropan-2-yl)-1H-imidazo[4,5-c]quinolin-4-amine] | ≤0.01 µM | ≤0.01 µM | ≤0.01 µM
